The results in this text go back to US20220296573A1, “NOVEL COMPOUNDS AND PHARMACEUTICAL COMPOSITIONS THEREOF FOR THE TREATMENT OF INFLAMMATORY DISORDERS” (Galapagos NV, priority 2019, published 2022).

Holding throughout (format): cell-based
Assay [1] has as its system IL-1β driven NFκB-reporter activity. The experiment in a line: THP1-Lucia NFκB reporter assay, IL-1β trigger. As to conditions: THP-1-Lucia NFκB cells, IL-1β 3 ng/mL, 24 h; read-out: average pEC50, IL-1β driven NFκB-reporter activity (converted). The source says:
(§1) This assay is used to evaluate the IRAK4 selectivity and potency of the compounds of the invention upon IRAK4 dependent (LPS and IL-1β) and independent triggering (TNFα), in a THP1-Lucia NFκB reporter assay.
(§2) THP-1-Lucia NFκB cells (Invivogen—5, rue Jean Rodier 31400 Toulouse France—cat #thp1-nfkb) were cultivated as recommended by the supplier using split cycles each cycle comprising a succession of thawing/expansion/seeding. The data reported were generated using cells having between 3 to 9 cycles. On the day of the experiment THP-1-Lucia NFκB cells were counted and seeded at a density of 1,000,000 cells/mL in culture medium (RPMI 1640 (Gibco, Cat #52400-025)+10% FBS (Sigma, Cat #F7524-500ML)+1% P/S (Gibco, Cat #15140-122)) by pipetting 54 μL/well in a 384 well plate. […]
(§3) For the readout, supernatant samples were thawed on ice and 5 μL sample was transferred from each well to a new 384-well plate. 20 μL of Quanti-Luc solution (Quanti-Luc powder (Invivogen, Cat #rep-qlc1) dissolved in 25 mL sterile water as indicated by the manufacturer) was added to each well after which luminescence was immediately measured on an Envision instrument.
(§4) To measure the inhibition of LPS/TNFα/IL-1β-induced NFκB-reporter activity, percentage inhibition (PIN) values were calculated for all concentrations tested, compared to controls. […]
In general terms: A reporter such as luciferase makes a cellular process visible.

Assay [2] deals with TNFα mediated NFκB-reporter activity. The experiment in a line: THP1-Lucia NFκB reporter assay, TNFα trigger. Conditions: THP-1-Lucia NFκB cells, TNFα 10 ng/mL, 24 h.
From the text: as §1, §2, §3, §4

For assay [3], the system named is LPS driven NFκB-reporter activity. The experiment in a line: THP1-Lucia NFκB reporter assay, LPS trigger. As to conditions: THP-1-Lucia NFκB cells, LPS 2.5 ng/mL, 24 h; read-out: average pEC50, LPS driven NFκB-reporter activity (converted).
From the text: as §1, §2, §3, §4

On to `COc1cc2nc(C3COCCO3)cn2cc1NC(=O)c1cccn(C2CC2)c1=O` (racemic) [Compound 1, 1-cyclopropyl-N-[2-(1,4-dioxan-2-yl)-7-methoxy-imidazo[1,2-a]pyridin-6-yl]-2-oxo-pyridine-3-carboxamide], for which the results for the EC50 in assay [1] and in assay [3] were 39.8 nM and 617 nM, respectively. The “activity on TNFα mediated NFκB-reporter activity” value in assay [2] is on record as “no activity was observed”.
